Reference: ChEMBL document CHEMBL1140726, “Discovery and biological evaluation of 5-aryl-2-furfuramides, potent and selective blockers of the Nav1.8 sodium channel with efficacy in models of neuropathic and inflammatory pain” (J Med Chem, 2008)

Assays:
[1] = Clearance in Sprague-Dawley rat plasma; format: ADME, organism-based
[2] = Activity at rat dorsal root ganglion in inactivated state with prepulse voltage of -40 mV assessed as blockade of TTx-resistant sodium current at 0.1 uM by whole-cell patch clamp technique; format: functional
[3] = biological target: T1, Sodium channel protein type 10 subunit alpha (Homo sapiens, UniProt Q9Y5Y9); experiment: Activity at human recombinant Nav 1.8 channel expressed in HEK293 cells in resting state with prepulse voltage of -100 mV assessed as blockade of TTx-resistant sodium current at 0.03 uM; format: cell-based
[4] = Oral bioavailability in Sprague-Dawley rat; format: ADME, organism-based; settings: in vivo
[5] = Bioavailability in Sprague-Dawley rat at 10 mg/kg, ip; format: ADME, organism-based; settings: in vivo
[6] = biological target: Sodium channel protein type 9 subunit alpha (Homo sapiens) (UniProt Q15858); experiment: Inhibition of human Nav1.7 channel at 10 uM
[7] = Protein binding in Sprague-Dawley rat plasma; format: ADME, cell-free; settings: read-out: PPB (converted)
Translocator protein [8] = biological target: T2, Translocator protein (Homo sapiens, UniProt P30536); experiment: Binding affinity to peripheral benzodiazepine receptor
T2 sequence (P30536 whole entry): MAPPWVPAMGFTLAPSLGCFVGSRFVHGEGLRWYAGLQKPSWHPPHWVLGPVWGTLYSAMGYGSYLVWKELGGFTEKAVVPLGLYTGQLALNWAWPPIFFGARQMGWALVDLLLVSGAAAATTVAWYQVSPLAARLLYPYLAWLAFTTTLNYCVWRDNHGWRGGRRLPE

[9] = biological target: T1, Sodium channel protein type 10 subunit alpha; experiment: Inhibition of human recombinant Nav 1.8 channel expressed in HEK293 cells; format: cell-based
[10] = biological target: T3, Nav1.5 (sodium channel protein type 5 subunit alpha) (Homo sapiens, UniProt Q14524); experiment: Inhibition of human Nav1.5 channel at 3 uM
T3 sequence (Q14524 whole entry): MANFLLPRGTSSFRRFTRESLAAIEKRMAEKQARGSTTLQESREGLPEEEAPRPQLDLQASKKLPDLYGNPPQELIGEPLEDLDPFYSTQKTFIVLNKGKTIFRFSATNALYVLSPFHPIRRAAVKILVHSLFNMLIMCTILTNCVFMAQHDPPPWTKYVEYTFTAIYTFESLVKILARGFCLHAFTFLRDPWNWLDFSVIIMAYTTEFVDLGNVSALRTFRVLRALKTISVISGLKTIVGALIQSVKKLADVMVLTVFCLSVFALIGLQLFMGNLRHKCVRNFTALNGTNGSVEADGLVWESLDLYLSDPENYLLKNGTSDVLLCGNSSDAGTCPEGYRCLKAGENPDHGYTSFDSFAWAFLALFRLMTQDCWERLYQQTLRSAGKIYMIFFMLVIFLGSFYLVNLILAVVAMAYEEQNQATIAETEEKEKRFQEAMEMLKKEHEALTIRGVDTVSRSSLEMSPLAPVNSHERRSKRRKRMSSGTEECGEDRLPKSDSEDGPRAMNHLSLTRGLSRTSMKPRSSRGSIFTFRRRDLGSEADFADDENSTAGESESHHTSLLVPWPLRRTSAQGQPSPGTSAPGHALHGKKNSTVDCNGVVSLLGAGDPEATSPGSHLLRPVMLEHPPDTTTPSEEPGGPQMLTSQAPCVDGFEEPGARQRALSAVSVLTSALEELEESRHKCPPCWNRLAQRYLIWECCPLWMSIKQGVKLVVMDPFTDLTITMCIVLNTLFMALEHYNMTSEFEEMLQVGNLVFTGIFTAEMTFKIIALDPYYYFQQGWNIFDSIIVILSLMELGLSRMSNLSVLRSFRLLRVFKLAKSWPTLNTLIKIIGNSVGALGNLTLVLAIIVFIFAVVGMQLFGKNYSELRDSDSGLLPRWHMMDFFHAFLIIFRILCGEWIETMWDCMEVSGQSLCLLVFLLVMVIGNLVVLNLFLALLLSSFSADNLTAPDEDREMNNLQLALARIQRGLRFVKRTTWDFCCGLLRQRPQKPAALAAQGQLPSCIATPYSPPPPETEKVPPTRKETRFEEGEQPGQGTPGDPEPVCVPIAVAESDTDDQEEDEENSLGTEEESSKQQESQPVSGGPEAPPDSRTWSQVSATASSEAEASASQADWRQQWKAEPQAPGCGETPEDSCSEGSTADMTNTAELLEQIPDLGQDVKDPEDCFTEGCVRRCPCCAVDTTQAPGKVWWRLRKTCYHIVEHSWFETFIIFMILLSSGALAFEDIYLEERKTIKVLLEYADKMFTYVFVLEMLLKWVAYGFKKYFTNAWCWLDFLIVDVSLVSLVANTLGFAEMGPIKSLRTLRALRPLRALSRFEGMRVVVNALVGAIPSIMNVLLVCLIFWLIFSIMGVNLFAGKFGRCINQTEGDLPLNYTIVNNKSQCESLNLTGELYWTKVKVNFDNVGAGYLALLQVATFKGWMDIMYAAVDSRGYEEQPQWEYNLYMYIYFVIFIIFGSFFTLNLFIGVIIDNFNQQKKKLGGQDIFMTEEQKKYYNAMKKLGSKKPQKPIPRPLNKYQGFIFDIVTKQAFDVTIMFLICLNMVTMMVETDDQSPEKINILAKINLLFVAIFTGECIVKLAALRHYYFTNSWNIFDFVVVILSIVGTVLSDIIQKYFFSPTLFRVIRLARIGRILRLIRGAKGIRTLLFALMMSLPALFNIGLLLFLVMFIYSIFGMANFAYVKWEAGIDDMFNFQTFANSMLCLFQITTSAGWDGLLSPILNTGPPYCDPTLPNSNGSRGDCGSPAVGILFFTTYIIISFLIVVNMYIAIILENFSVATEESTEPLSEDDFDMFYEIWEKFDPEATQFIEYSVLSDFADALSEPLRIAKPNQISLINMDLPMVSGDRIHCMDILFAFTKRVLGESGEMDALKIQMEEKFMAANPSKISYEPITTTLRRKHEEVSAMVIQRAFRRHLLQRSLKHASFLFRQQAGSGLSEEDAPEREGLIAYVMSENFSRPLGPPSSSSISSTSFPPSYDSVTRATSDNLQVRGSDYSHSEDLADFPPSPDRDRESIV

[11] = biological target: T1, Sodium channel protein type 10 subunit alpha; experiment: Activity at human recombinant Nav 1.8 channel expressed in HEK293 cells in inactivated state with prepulse voltage of -40 mV assessed as blockade of TTx-resistant sodium current at 0.01 uM; format: cell-based
[12] = Volume of distribution at steady state in Sprague-Dawley rat; format: ADME, organism-based; settings: in vivo, read-out: Vdss
[13] = Ratio of drug level in brain to plasma in Sprague-Dawley rat; format: ADME
[14] = biological target: Sodium channel protein type 10 subunit alpha (Mus musculus, UniProt Q6QIY3); experiment: Inhibition of mouse recombinant Nav 1.8 channel expressed in HEK293 cells by isotopic efflux assay; format: cell-based
Translocator protein [15] = biological target: T2, Translocator protein; experiment: Binding affinity to peripheral benzodiazepine receptor at 10 uM
[16] = biological target: Sodium channel protein type 9 subunit alpha (Homo sapiens) (UniProt Q15858); experiment: Inhibition of human Nav1.7 channel at 3 uM
[17] = biological target: Sodium channel protein type 3 subunit alpha (Homo sapiens) (UniProt Q9NY46); experiment: Inhibition of human Nav1.3 channel at 10 uM
Sodium channel protein type 3 subunit alpha (Homo sapiens), sequence (Q9NY46 whole entry, looked up): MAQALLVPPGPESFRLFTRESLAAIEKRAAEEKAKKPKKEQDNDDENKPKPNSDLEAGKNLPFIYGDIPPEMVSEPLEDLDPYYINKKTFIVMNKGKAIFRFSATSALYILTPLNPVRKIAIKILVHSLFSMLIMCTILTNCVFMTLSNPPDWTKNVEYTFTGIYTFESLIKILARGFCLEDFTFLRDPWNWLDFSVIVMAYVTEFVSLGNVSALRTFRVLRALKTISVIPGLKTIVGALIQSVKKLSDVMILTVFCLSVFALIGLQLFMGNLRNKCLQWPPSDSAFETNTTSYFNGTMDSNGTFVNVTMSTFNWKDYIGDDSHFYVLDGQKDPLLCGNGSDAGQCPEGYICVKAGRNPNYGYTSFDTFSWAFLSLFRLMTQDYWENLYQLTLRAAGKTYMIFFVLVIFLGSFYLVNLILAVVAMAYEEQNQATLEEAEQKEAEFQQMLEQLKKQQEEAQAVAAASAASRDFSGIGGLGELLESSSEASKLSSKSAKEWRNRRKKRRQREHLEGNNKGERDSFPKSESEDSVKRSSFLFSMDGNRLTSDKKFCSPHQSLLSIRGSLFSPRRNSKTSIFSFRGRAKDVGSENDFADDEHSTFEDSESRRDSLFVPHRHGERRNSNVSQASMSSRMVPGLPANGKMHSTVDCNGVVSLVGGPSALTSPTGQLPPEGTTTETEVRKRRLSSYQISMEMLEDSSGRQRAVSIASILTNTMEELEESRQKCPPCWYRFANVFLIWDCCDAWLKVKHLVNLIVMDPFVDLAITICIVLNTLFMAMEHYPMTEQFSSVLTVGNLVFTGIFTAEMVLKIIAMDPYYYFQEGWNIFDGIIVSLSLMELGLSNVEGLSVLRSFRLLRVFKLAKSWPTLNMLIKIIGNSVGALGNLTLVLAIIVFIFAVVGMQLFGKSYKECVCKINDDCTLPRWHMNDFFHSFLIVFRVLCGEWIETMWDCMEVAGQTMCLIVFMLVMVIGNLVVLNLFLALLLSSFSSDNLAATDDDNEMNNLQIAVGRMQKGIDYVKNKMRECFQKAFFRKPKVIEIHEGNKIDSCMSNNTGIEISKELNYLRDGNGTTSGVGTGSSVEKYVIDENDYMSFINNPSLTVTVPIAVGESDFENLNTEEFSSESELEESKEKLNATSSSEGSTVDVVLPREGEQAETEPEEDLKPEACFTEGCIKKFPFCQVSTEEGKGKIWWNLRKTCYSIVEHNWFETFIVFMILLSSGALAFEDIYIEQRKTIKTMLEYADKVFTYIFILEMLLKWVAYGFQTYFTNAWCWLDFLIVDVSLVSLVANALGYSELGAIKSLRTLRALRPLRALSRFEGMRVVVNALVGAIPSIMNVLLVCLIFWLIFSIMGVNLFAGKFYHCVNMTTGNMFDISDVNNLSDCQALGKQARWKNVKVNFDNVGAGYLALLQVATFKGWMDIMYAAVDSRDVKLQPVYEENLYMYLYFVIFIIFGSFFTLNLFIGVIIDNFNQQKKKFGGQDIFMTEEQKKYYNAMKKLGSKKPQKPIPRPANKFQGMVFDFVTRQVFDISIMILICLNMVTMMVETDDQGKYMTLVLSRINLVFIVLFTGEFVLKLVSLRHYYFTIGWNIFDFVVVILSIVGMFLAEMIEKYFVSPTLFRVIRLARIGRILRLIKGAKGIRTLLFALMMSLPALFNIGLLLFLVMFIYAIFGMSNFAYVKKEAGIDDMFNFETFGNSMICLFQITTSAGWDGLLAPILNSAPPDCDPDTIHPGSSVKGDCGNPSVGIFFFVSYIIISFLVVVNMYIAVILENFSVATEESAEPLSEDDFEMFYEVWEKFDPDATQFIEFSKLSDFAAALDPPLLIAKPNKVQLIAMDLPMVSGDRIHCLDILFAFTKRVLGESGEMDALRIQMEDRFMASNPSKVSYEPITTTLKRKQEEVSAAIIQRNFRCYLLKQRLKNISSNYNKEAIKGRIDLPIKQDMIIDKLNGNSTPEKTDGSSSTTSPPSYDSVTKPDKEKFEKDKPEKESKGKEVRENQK

[18] = biological target: Sodium channel protein type 5 subunit alpha (Homo sapiens, UniProt Q14524); experiment: Inhibition of human Nav1.5 channel at 1 uM
[19] = biological target: T3, Nav1.5 (sodium channel protein type 5 subunit alpha); experiment: Inhibition of human Nav1.5 channel at 10 uM
[20] = biological target: Sodium channel protein type 2 subunit alpha (Homo sapiens) (UniProt Q99250); experiment: Inhibition of human Nav1.2 channel at 3 uM
[21] = Activity at rat dorsal root ganglion in inactivated state with prepulse voltage of -40 mV assessed as blockade of TTx-resistant sodium current at 0.3 uM by whole-cell patch clamp technique; format: functional
[22] = biological target: T1, Sodium channel protein type 10 subunit alpha; experiment: Inhibition of human recombinant Nav 1.8 channel expressed in HEK293 cells at 0.03 uM; format: cell-based
[23] = biological target: T1, Sodium channel protein type 10 subunit alpha; experiment: Activity at human recombinant Nav 1.8 channel expressed in HEK293 cells in inactivated state with prepulse voltage of -40 mV assessed as blockade of TTx-resistant sodium current at 0.03 uM; format: cell-based
[24] = biological target: Sodium channel protein type 2 subunit alpha (Homo sapiens) (UniProt Q99250); experiment: Inhibition of human Nav1.2 channel at 10 uM
[25] = Cmax in Sprague-Dawley rat at 10 mg/kg, ip; format: ADME, organism-based; parameters: dose 10 mg/kg, route intraperitoneal; settings: in vivo
[26] = Activity at rat dorsal root ganglion in resting state with prepulse voltage of -100 mV assessed as blockade of TTx-resistant sodium current at 0.3 uM by whole-cell patch clamp technique; format: functional
[27] = biological target: T1, Sodium channel protein type 10 subunit alpha; experiment: Activity at human recombinant Nav 1.8 channel expressed in HEK293 cells in resting state with prepulse voltage of -100 mV assessed as blockade of TTx-resistant sodium current at 0.01 uM; format: cell-based
[28] = Half life in Sprague-Dawley rat; format: ADME, organism-based; settings: in vivo
Rattus norvegicus [29] = experiment: Antinociceptive activity in ip dosed Sprague-Dawley rat assessed as attenuation of mechanical allodynia in chung model of neuropathic pain; format: functional; settings: for ED50: Rattus norvegicus, Sprague-Dawley, ip
[30] = Activity at rat dorsal root ganglion in resting state with prepulse voltage of -100 mV assessed as blockade of TTx-resistant sodium current at 0.1 uM by whole-cell patch clamp technique; format: functional
[31] = Intrinsic clearance in Sprague-Dawley rat microsomes after 1 hr; format: ADME, Liver, Microsome
[32] = biological target: Sodium channel protein type 3 subunit alpha (Homo sapiens) (UniProt Q9NY46); experiment: Inhibition of human Nav1.3 channel at 3 uM
[33] = biological target: Voltage-gated inwardly rectifying potassium channel KCNH2 (Homo sapiens, UniProt Q12809); experiment: Inhibition of hERG potassium channel expressed in CHO cells by isotope efflux assay
Rattus norvegicus [34] = experiment: Antinociceptive activity in ip dosed Sprague-Dawley rat assessed as reduction of mechanical allodynia in Bennett model of neuropathic pain; format: functional; parameters: Activity: scale not given: the % may be the effect or the level left; settings: for ED50: Rattus norvegicus, Sprague-Dawley, ip
[35] = biological target: T1, Sodium channel protein type 10 subunit alpha; experiment: Inhibition of human recombinant Nav 1.8 channel expressed in HEK293 cells at 0.01 uM; format: cell-based
Rattus norvegicus [36] = experiment: Antinociceptive activity in ip dosed Sprague-Dawley rat assessed as reduction of CFA-induced thermal hyperalgesia; format: functional; parameters: Activity: scale not given: the % may be the effect or the level left; settings: for ED50: Rattus norvegicus, Sprague-Dawley, ip
[37] = biological target: T4, 5-hydroxytryptamine receptor 2A (Homo sapiens, UniProt P28223); settings: 10 uM
T4 sequence (P28223 whole entry): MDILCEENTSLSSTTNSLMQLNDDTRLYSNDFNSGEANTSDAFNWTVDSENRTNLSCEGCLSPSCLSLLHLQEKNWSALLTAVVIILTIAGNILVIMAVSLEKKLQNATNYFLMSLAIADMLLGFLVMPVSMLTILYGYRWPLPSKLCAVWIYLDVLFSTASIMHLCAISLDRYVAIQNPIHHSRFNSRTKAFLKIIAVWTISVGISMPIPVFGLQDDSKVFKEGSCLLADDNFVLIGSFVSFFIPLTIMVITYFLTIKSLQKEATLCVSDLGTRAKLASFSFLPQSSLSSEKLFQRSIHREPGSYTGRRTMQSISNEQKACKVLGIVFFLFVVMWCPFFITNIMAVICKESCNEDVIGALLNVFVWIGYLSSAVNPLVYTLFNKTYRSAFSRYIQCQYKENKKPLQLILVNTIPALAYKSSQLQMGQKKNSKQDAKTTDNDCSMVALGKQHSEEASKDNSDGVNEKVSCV

[38] = biological target: T1, Sodium channel protein type 10 subunit alpha; experiment: Inhibition of human recombinant Nav 1.8 channel expressed in HEK293 cells at 0.003 uM; format: cell-based
[39] = biological target: T1, Sodium channel protein type 10 subunit alpha; experiment: Activity at human recombinant Nav 1.8 channel expressed in HEK293 cells in inactivated state with prepulse voltage of -40 mV assessed as blockade of TTx-resistant sodium current at 0.003 uM; format: cell-based
[40] = biological target: T5, Cholecystokinin receptor type A (Homo sapiens, UniProt P32238); experiment: Binding affinity to CCKAR
T5 sequence (P32238 whole entry): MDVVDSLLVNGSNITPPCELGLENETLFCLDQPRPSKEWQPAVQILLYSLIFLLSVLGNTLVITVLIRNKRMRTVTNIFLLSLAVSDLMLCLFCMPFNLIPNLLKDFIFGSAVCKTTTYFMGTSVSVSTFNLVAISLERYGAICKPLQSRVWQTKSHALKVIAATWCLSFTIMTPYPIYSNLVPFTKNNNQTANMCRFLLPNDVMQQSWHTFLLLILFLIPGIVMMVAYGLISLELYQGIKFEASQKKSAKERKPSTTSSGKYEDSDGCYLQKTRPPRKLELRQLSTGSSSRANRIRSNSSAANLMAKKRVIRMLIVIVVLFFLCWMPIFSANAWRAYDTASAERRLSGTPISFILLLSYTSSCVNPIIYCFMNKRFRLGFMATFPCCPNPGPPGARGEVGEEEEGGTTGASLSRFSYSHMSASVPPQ

D(1A) dopamine receptor [41] = biological target: T6, D(1A) dopamine receptor (Homo sapiens, UniProt P21728); settings: 10 uM
T6 sequence (P21728 whole entry): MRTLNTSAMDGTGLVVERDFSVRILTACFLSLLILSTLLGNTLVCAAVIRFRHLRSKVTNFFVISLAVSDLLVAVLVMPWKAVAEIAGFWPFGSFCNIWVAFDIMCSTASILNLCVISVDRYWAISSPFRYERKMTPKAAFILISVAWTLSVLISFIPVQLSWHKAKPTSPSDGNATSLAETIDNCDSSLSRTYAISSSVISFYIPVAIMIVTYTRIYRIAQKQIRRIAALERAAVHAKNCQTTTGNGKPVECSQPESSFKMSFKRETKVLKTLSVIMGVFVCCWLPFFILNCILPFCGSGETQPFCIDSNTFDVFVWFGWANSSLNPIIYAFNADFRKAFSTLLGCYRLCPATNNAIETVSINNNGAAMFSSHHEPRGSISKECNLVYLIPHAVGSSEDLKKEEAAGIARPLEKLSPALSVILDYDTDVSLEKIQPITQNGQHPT

D(1A) dopamine receptor [42] = biological target: T6, D(1A) dopamine receptor; experiment: Binding affinity to dopamine D1 receptor
[43] = biological target: T4, 5-hydroxytryptamine receptor 2A; experiment: Binding affinity to 5HT2A receptor
[44] = Binding affinity to melatonin receptor 1
[45] = biological target: T1, Sodium channel protein type 10 subunit alpha; experiment: Activity at human recombinant Nav 1.8 channel expressed in HEK293 cells in resting state with prepulse voltage of -100 mV assessed as blockade of TTx-resistant sodium current at 0.003 uM; format: cell-based
[46] = biological target: T7, Cholecystokinin receptor type A (Homo sapiens) (UniProt P32238); settings: 10 uM
T7 sequence (whole entry): T5 sequence (P32238 whole entry)

Cc1cccc(NC(=O)c2ccc(-c3ccc(C#N)cc3)o2)c1
clearance [1]: 40 mL/min/kg
inhibition at 0.1 µM [2]: 41%
inhibition [3]: 29%
bioavailability [4]: 4%
bioavailability [5]: 36%
inhibition [6]: 54%
fraction unbound [7]: 0.017
IC50 (Translocator protein [8]): > 2000 nM
IC50 [9]: 79 nM
inhibition at 3 µM [10]: 61%
inhibition [11]: 33%
Vd [12]: 1.9 L/kg
Kp [13]: 0.35
IC50 [14]: 480 nM
inhibition (Translocator protein [15]): > 60%
inhibition [16]: 26%
inhibition [17]: 58%
IC50 [18]: > 2000 nM
inhibition at 10 µM [19]: 74%
inhibition [20]: 32%
inhibition at 0.3 µM [21]: 74%
inhibition [22]: 51%
inhibition [23]: 51%
inhibition [24]: 57%
Cmax [25]: 750 ng/mL
inhibition at 0.3 µM [26]: 52%
inhibition [27]: 14%
half-life [28]: 1.9 h
Activity (Rattus norvegicus [29]): 86%
ED50 (Rattus norvegicus [29]): 38 mg/kg
inhibition at 0.1 µM [30]: 38%
microsomal CLint [31]: 260 µL/min/mg
inhibition [32]: 47%
IC50 [33]: 5800 nM
Activity (Rattus norvegicus [34]): 21%
ED50 (Rattus norvegicus [34]): > 100 mg/kg
inhibition [35]: 33%
Activity (Rattus norvegicus [36]): 55%
ED50 (Rattus norvegicus [36]): 98 mg/kg

COc1cc(NC(=O)c2ccc(-c3ccc(Cl)cc3)o2)cc(OC)c1
inhibition at 0.1 µM [2]: 48%
inhibition [6]: 54%
IC50 (Translocator protein [8]): > 2000 nM
inhibition [37]: > 60%
inhibition at 3 µM [10]: 44%
inhibition [11]: 59%
Vd [12]: 6.4 L/kg
Kp [13]: 1.1
inhibition [38]: 30%
IC50 [14]: 850 nM
inhibition [39]: 30%
IC50 [40]: > 2000 nM
inhibition (Translocator protein [15]): > 60%
inhibition [16]: 42%
inhibition [17]: 70%
IC50 [18]: > 2000 nM
inhibition (D(1A) dopamine receptor [41]): > 60%
inhibition at 10 µM [19]: 49%
IC50 (D(1A) dopamine receptor [42]): > 2000 nM
inhibition [20]: 41%
inhibition at 0.3 µM [21]: 71%
inhibition [24]: 53%
inhibition at 0.3 µM [26]: 48%
inhibition [27]: 19%
half-life [28]: 7.3 h
IC50 [43]: > 2000 nM
IC50 [44]: > 2000 nM
Activity (Rattus norvegicus [29]): 70%
ED50 (Rattus norvegicus [29]): 47 mg/kg
inhibition at 0.1 µM [30]: 14%
inhibition [45]: 5%
microsomal CLint [31]: 140 µL/min/mg
inhibition [46]: > 60%
inhibition [32]: 52%
Activity (Rattus norvegicus [34]): 56%
ED50 (Rattus norvegicus [34]): 85 mg/kg
inhibition [35]: 59%
Activity (Rattus norvegicus [36]): 64%
ED50 (Rattus norvegicus [36]): 41 mg/kg
